Patent US7087035B2 (priority 1999, dated 2006)

Details: stretched and non-stretched groups; systems removed at 24 and 48 hours
Source text: In one group of 12 hairless guinea pigs the skin of one flank was stretched manually bi-directionally ( ? and ? ) before application of a foam double adhesive ring having a thickness of 0.8 mm ( 1/32 inch) with a 2 cm^2 hole in the middle which would later contain the drug. The bi-directional stretching was estimated to achieve a skin tension of between 0.1 and 1 M Pa. The adhesive ring served to keep the skin under the drug compartment in the stretched configuration. Next, a 2 cm^2 stainless steel microprotrusion array having trapezoidal microprotrusions with microprotrusion lengths of 430 μm and a microprotrusion density of 241 microprotrusions/cm^2 was applied to the skin beneath the drug compartment using an approximately 2 kg/cm^2 normal manual pressure. The microprotrusion array was held for a few seconds and then removed.
A second group of 12 hairless guinea pigs were treated in the same way, except that the skin was not stretched. At 12, 24, and 48 hours after application four systems from each group were removed and residual drug was washed from the skin.

drug flux after 12 hours: no drug flux in either group
SMILES: NCCCC[C@H](N[C@@H](CCc1ccccc1)C(=O)O)C(=O)N1CCC[C@H]1C(=O)O [lisinopril]
